# Test system: JY cells
# Test: lysis of hTRT positive JY cells by human CTL against p1123
# Format: cell-based
# Details: CTL from normal donors; no peptide pulsing
# Description: Tests were run in duplicates at the indicated E:T ratios. CTL were used after 4 cycles of in vitro restimulation with homologous peptide. […].
# In vitro immunization procedures. In experiments shown in Table III and FIG. 3, immunizations were performed in 96 well plates. Briefly, 2×10^5 irradiated (6000 rads) human PBMC were plated in 96 (flat) well-plate in 100 micro-liters of complete human medium (RPMI 1640 medium containing 10% heat inactivated human AB serum, 2 mM glutamine, 50 micro-grams/ml streptomycin and 50 micro-grams/ml penicillin) with 100 micro-grams/ml of peptide. 12 wells per peptide were plated per patient. Then 2×10^5 PBMC in 100 micro-liters of complete human medium were added into each well. Four days later 100 micro-liters of medium were replaced with 100 micro-liters of fresh complete human medium containing 80 IU/ml of IL-2. At day 6-7, 100 IU/ml of IL-2 were added and wells were split into two. On day 10-11 micro-cytotoxicity assay was performed. […]
# CTL assays. Both murine and human CTL were detected by the ^51Cr release assay performed as previously described (14). […] The supernatants were harvested and counted on a Wallac 1470 Wizard Gamma counter. The percent lysis was calculated as 100 (cpmexp−cpmspont)/(cpmmax−cpmspont). […]
compound,measurement,value
CC[C@H](C)[C@H](NC(=O)[C@@H](NC(=O)[C@H](CCCCN)NC(=O)[C@H](Cc1ccccc1)NC(=O)[C@H](CC(=O)O)NC(=O)[C@H](CO)NC(=O)[C@@H]1CCCN1C(=O)[C@@H](N)CC(C)C)[C@@H](C)O)C(=O)N[C@@H](CC(C)C)C(=O)O [p1123],lysis of JY cells by CTL against p1123 (in words),also killed JY cells in the absence of any peptide pulsing

# Reference: patent US20090202499A1, “Human Telomerase Reverse Transcriptase Peptides” (priority 2006, published 2009)
